Drawing on BindingDB's records for doi:10.1021/jm00083a013 (1992), this text covers IC50 for three compounds.

The target in test [1] is Aminopeptidase N (Rattus norvegicus) (UniProt P15684). The test can be described thus: Compound was evaluated for its inhibitory potency against purified membrane bound rat brain Aminopeptidase.
Test [2] has as its target T1, Aminopeptidase B (Rattus norvegicus, UniProt O09175).
T1 sequence (O09175 whole entry): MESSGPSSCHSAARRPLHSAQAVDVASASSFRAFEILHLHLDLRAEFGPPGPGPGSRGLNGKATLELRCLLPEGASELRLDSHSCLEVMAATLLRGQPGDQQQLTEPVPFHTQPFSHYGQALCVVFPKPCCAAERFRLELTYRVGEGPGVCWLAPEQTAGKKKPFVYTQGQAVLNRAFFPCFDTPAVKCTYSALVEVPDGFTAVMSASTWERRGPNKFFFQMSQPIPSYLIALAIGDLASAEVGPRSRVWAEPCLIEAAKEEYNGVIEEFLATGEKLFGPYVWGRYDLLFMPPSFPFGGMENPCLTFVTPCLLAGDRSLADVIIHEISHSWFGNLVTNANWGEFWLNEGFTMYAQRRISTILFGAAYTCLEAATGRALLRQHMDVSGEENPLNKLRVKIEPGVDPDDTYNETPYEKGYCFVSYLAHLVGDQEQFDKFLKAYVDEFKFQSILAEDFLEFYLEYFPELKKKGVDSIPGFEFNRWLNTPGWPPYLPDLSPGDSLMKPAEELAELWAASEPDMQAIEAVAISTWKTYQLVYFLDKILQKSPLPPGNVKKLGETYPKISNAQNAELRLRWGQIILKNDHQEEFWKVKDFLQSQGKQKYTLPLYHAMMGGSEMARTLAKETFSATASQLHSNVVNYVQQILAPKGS
The test is described as follows: ChEBML_35343. The protocol: Compound was evaluated for its inhibitory potency against purified membrane bound rat brain Aminopeptidase B using L-lysine-beta napthylamide as substrate

Test [3] addresses T1, Aminopeptidase B. The test can be described thus: Compound was evaluated for its inhibitory potency against purified membrane bound rat brain Aminopeptidase B (AP-B) using L-lysine-beta napthylamide as substrate.
The target in the next test is T2, Aminopeptidase N (Rattus norvegicus, UniProt P15684).
T2 sequence (P15684 whole entry): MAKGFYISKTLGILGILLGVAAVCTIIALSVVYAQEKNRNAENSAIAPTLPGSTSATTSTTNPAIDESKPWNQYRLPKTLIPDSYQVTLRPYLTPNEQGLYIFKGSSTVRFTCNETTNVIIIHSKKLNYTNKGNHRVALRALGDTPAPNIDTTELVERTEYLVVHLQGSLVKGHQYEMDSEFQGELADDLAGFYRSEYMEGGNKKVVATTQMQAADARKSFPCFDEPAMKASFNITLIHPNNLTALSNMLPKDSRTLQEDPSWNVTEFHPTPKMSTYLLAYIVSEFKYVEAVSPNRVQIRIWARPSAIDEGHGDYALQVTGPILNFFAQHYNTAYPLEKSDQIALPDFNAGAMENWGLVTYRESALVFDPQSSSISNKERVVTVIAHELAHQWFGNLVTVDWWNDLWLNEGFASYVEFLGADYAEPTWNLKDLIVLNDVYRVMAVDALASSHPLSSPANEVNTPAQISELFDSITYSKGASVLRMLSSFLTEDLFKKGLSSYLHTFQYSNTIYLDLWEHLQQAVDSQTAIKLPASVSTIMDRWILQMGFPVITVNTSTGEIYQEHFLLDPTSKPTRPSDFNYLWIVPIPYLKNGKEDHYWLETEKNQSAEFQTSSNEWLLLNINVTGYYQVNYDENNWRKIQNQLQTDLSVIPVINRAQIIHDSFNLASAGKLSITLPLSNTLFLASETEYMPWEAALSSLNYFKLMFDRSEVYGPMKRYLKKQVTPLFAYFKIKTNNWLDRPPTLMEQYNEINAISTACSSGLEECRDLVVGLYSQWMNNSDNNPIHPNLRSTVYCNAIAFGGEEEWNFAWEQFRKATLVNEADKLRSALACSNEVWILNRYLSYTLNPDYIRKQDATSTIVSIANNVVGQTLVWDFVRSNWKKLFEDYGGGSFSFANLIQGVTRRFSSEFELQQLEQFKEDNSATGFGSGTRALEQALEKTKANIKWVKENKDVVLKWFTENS
The test can be described thus: ChEBML_35366. The protocol: Compound was evaluated for its inhibitory potency against purified membrane bound rat brain Aminopeptidase M (AP-M) using [3H]Leu-enkephalin as substrate

For the compound `COC(=O)[C@H](CC(C)C)NC(=O)[C@@H](O)[C@H](N)CCCCN`, the IC50 (as a rule, the concentration that gives 50% inhibition) in test [1] stood at 2010 nM. `COC(=O)[C@H](Cc1c[nH]c2ccccc12)NC(=O)[C@H](O)[C@@H](N)CCCCN`: the IC50 at Aminopeptidase B [2] came out at 500 µM. As to `COC(=O)[C@H](CC(C)C)NC(=O)[C@H](O)[C@@H](N)CCCCN`, the IC50 against Aminopeptidase B [3] was 500 µM; against Aminopeptidase N it was greater than 1 mM.
